{"source": "PubChem BioAssay AID463229", "about": "(Broad Institute, 2010)", "system": "INS-1E rat beta cells, no cytokines, CellTiter-Glo ATP, 48 h", "assay": "cytokine-free beta-cell viability effect – INS-1E rat cells, ATP luminescence, cherry pick, counter-screen for beta-cell apoptosis protection project, dose response (AID 463229)", "data": [{"smiles": "COc1ccc(-n2cc(-c3ccccc3)[n+]3c2CCCCC3)cc1", "values": [{"measurement": "AC50", "value": 1.94, "unit": "µM"}]}, {"smiles": "COc1cccc(/C=N/Nc2nc(Nc3ccccc3)nc(-n3nc(C)cc3C)n2)c1O", "values": [{"measurement": "AC50", "value": 12.3, "unit": "µM"}]}, {"smiles": "Cc1[nH]n(-c2ccccc2)c(=O)c1N=Nc1c(O)cc(S(=O)(=O)N(C)C)c2ccccc12", "values": [{"measurement": "AC50", "value": 3.72, "unit": "µM"}]}, {"smiles": "CCN1CCN(Cc2ccc(NC(=O)c3cc(NC(=O)c4cnn(-c5ccccc5)c4N)cc(OC)c3)cc2C(F)(F)F)CC1", "values": [{"measurement": "AC50", "value": 15.3, "unit": "µM"}]}, {"smiles": "Cc1[nH]n(-c2ccccc2)c(=O)c1/C=N/NC(=O)COc1ccccc1[N+](=O)[O-]", "values": [{"measurement": "AC50", "value": 8.45, "unit": "µM"}]}, {"smiles": "COc1cc(/C=N/N=C(N)N)ccc1OCc1ccc(Cl)cc1", "values": [{"measurement": "AC50", "value": 7.22, "unit": "µM"}]}, {"smiles": "Cc1cccc(CNc2ncnc3ccc(-c4ccc5c(c4)OCCO5)cc23)c1", "values": [{"measurement": "AC50", "value": 7.27, "unit": "µM"}]}, {"smiles": "Oc1c(CN2CCOCC2)cc(COCc2ccccc2)c2cccnc12", "values": [{"measurement": "AC50", "value": 8.19, "unit": "µM"}]}, {"smiles": "Cc1ccc(-c2cc(-c3ccc(C)cc3)[n+](-c3ccccc3)c(-c3ccc(C)cc3)c2)cc1", "values": [{"measurement": "AC50", "value": 0.577, "unit": "µM"}]}, {"smiles": "COc1ccc(C(=O)N/N=C(\\C)c2ccccn2)cc1OC", "values": [{"measurement": "AC50", "value": 2.54, "unit": "µM"}]}, {"smiles": "COc1ccc(-c2c[n+](CC(=O)OC3CC(C)CCC3C(C)C)c3n2CCC3)cc1", "note": "(stereo not drawn)", "values": [{"measurement": "AC50", "value": 1.87, "unit": "µM"}]}, {"smiles": "Cc1cccc(/C=N\\NC(=O)c2ccc(Cl)cc2)c1O", "values": [{"measurement": "AC50", "value": 4.8, "unit": "µM"}]}, {"smiles": "COc1ccc2nc(C)cc(SCC(=O)N/N=C/c3ccc(O)cc3O)c2c1", "values": [{"measurement": "AC50", "value": 17.4, "unit": "µM"}]}, {"smiles": "CCOC(=O)N1CCN(C(=O)CSCC(=O)Nc2nc(-c3ccc(-c4ccccc4)cc3)cs2)CC1", "values": [{"measurement": "AC50", "value": 4.49, "unit": "µM"}]}, {"smiles": "Cc1cc(C(=O)NC2CCCc3c2cnn3-c2ccc(C)c(C)c2)n(C)n1", "note": "(stereo not drawn)", "values": [{"measurement": "AC50", "value": 0.378, "unit": "µM"}]}, {"smiles": "N#CC1=C(N)Oc2c(ccc3cccnc23)C1c1cccnc1", "note": "(stereo not drawn)", "values": [{"measurement": "AC50", "value": 7.5, "unit": "µM"}]}, {"smiles": "CC(=O)N1CCc2cc(S(=O)(=O)NCCC3=CCCCC3)ccc21", "values": [{"measurement": "AC50", "value": 7.63, "unit": "µM"}]}, {"smiles": "CC1=NN(c2nc3ccccc3[nH]2)C(=O)C1Cc1ccccc1", "note": "(stereo not drawn)", "values": [{"measurement": "AC50", "value": 2.1, "unit": "µM"}]}, {"smiles": "O=C(N/N=C/c1cc([N+](=O)[O-])ccc1O)c1cccc(NC(=O)c2cccc(Cl)c2)c1", "values": [{"measurement": "AC50", "value": 5.82, "unit": "µM"}]}, {"smiles": "O=[N+]([O-])c1ccc(N=Nc2c(Cl)cc(O)cc2Cl)cc1", "values": [{"measurement": "AC50", "value": 2.08, "unit": "µM"}]}, {"smiles": "CCCOc1cc(NCc2ccccc2)c2ncn(C(C)C)c2c1", "values": [{"measurement": "AC50", "value": 7.28, "unit": "µM"}]}, {"smiles": "CN(C)CCOc1ccc(-c2c(-c3ccccc3)sc3ccccc23)cc1", "values": [{"measurement": "AC50", "value": 12.8, "unit": "µM"}]}, {"smiles": "O=C(N/N=C/c1ccc[nH]1)c1ccc(COc2cccc3cccnc23)cc1", "values": [{"measurement": "AC50", "value": 1.92, "unit": "µM"}]}, {"smiles": "CCCCCCCCCCCCn1ccc(=N)cc1", "values": [{"measurement": "AC50", "value": 0.515, "unit": "µM"}]}, {"smiles": "Cc1ccc(C(=O)N/C(=C\\c2ccc(-c3ccc(Br)cc3)o2)C(=O)NCCCN(C)C)cc1", "values": [{"measurement": "AC50", "value": 7.87, "unit": "µM"}]}, {"smiles": "COC(=O)c1ccccc1NC(=O)c1nc(S(=O)(=O)Cc2ccccc2)ncc1Cl", "values": [{"measurement": "AC50", "value": 7.98, "unit": "µM"}]}, {"smiles": "N#CC(c1cccc(Cl)c1)c1ccc2c(C(F)(F)F)cc(C(F)(F)F)nc2n1", "note": "(stereo not drawn)", "values": [{"measurement": "AC50", "value": 0.868, "unit": "µM"}]}, {"smiles": "O=C(NCc1ccccc1)C1=C[C@@H](c2csc3ccccc23)C[C@@H](OCCCCO)O1", "values": [{"measurement": "AC50", "value": 2.67, "unit": "µM"}]}, {"smiles": "Cc1ccc2[nH]c(C(=O)N/N=C/c3ccccc3O)c(C)c2c1", "values": [{"measurement": "AC50", "value": 2.33, "unit": "µM"}]}, {"smiles": "CN(C)C1=NC[C@H](Cc2ccccc2)N1CCCC1CCCCC1", "values": [{"measurement": "AC50", "value": 13.6, "unit": "µM"}]}, {"smiles": "NC(=O)c1ccc(N2CCN(S(=O)(=O)c3cccs3)CC2)c([N+](=O)[O-])c1", "values": [{"measurement": "AC50", "value": 6.36, "unit": "µM"}]}, {"smiles": "Oc1c(Cl)cc(Cl)cc1/C=N/Nc1ncc(Br)cn1", "values": [{"measurement": "AC50", "value": 3.94, "unit": "µM"}]}, {"smiles": "CC(C)C(=O)NC(c1cccs1)c1cc([N+](=O)[O-])c2cccnc2c1O", "note": "(stereo not drawn)", "values": [{"measurement": "AC50", "value": 9.51, "unit": "µM"}]}, {"smiles": "C/C(=N\\NC(=O)c1ccc(C)cc1)c1c(C)[nH]n(-c2ccccc2)c1=O", "values": [{"measurement": "AC50", "value": 15.3, "unit": "µM"}]}, {"smiles": "CCc1ccc(Nc2n[n+](-c3ccccc3)c(-c3c(Cl)cccc3Cl)s2)cc1", "values": [{"measurement": "AC50", "value": 4.08, "unit": "µM"}]}, {"smiles": "CCN(CC)S(=O)(=O)c1ccc(Cl)c(C(=O)Nc2ccc(Cl)cc2[N+](=O)[O-])c1", "values": [{"measurement": "AC50", "value": 7.97, "unit": "µM"}]}, {"smiles": "c1ccc(CNc2nc(-c3ccccn3)nc3ccccc23)cc1", "values": [{"measurement": "AC50", "value": 7.68, "unit": "µM"}]}, {"smiles": "COc1cc(NC(=O)COc2cc(O)c3c(c2)OC(C)(C)CC3=O)cc(OC)c1OC", "values": [{"measurement": "AC50", "value": 6.45, "unit": "µM"}]}, {"smiles": "CC(C)c1ccccc1-n1c(SCC(=O)N2CCc3ccccc3C2)nc2ccccc2c1=O", "values": [{"measurement": "AC50", "value": 2.42, "unit": "µM"}]}, {"smiles": "O=[N+]([O-])c1ccc(-[n+]2ccc3ccccc3c2)c([N+](=O)[O-])c1", "values": [{"measurement": "AC50", "value": 7.89, "unit": "µM"}]}, {"smiles": "COc1ccc(O)c(/C=N/NC(=O)c2cccc(N3CCCC3=O)c2)c1", "values": [{"measurement": "AC50", "value": 14.8, "unit": "µM"}]}, {"smiles": "CCOC(=O)c1ccc(NC(=O)Cn2cnc3cc(C)c(C)cc32)cc1", "values": [{"measurement": "AC50", "value": 5.23, "unit": "µM"}]}, {"smiles": "O=C(N/N=C(\\c1ccccc1)c1cccnc1)c1cccc(F)c1", "values": [{"measurement": "AC50", "value": 2.56, "unit": "µM"}]}, {"smiles": "O=C(NCc1cccnc1)c1ccc([N+](=O)[O-])cc1", "values": [{"measurement": "AC50", "value": 5.86, "unit": "µM"}]}, {"smiles": "O=[N+]([O-])c1ccc(/C=N/n2cnc3ccccc32)s1", "values": [{"measurement": "AC50", "value": 4.04, "unit": "µM"}]}, {"smiles": "CCN(CC)c1ccc(/C=N/NC(=O)c2nnn(-c3nonc3N)c2C(C)C)c(O)c1", "values": [{"measurement": "AC50", "value": 1.16, "unit": "µM"}]}, {"smiles": "Cc1cc([N+](=O)[O-])nn1Cc1ccc(C(=O)N/N=C/c2ccc(O)cc2O)cc1", "values": [{"measurement": "AC50", "value": 6.27, "unit": "µM"}]}, {"smiles": "CC1=NNC(=O)/C1=C\\c1cn(-c2ccccc2)nc1-c1cccs1", "values": [{"measurement": "AC50", "value": 7.54, "unit": "µM"}]}, {"smiles": "CCCCCCSc1cc(-c2nc3ccc(C)cn3c2NCc2ccccc2)ccc1OC", "values": [{"measurement": "AC50", "value": 6.2, "unit": "µM"}]}, {"smiles": "COc1ccc(C(=O)/C(=C\\c2ccco2)N2C=CC=CC2=C(C#N)C#N)cc1", "values": [{"measurement": "AC50", "value": 7.26, "unit": "µM"}]}, {"smiles": "CC1=C(C#N)C(C(F)(F)F)(C(F)(F)F)N=C(c2ccco2)N1", "values": [{"measurement": "AC50", "value": 12.8, "unit": "µM"}]}, {"smiles": "Oc1ccc(N=Nc2nccs2)c(O)c1", "values": [{"measurement": "AC50", "value": 6.64, "unit": "µM"}]}, {"smiles": "Cc1ccc(C2C(C=Nc3c(C)n(C)n(-c4ccccc4)c3=O)=C(c3ccccc3)Oc3ccccc32)cc1", "note": "(stereo not drawn)", "values": [{"measurement": "AC50", "value": 7.38, "unit": "µM"}]}]}
